Here are results for one compound from US7582638B2, “Pyrazole-isoquinoline urea derivatives as p38 kinase inhibitors” (Eli Lilly and Company, priority 2005, dated 2009).

For one data set, the target named is p38 kinase enzyme. Description: Inhibition of p38 kinase (33P-ATP, EGF peptide 661-681 substrate). Type of data set: biochemical. Particulars: 40 minutes at 30° C. Here is the method:
The kinase buffer solution is prepared by combining 2.5 mL 1M Tris-HCl (pH 7.5), 0.1 mL 1 M dithiothreitol, 1.0 mL 1 M magnesium chloride, and 300 μL 1% Triton X-100 and diluting to 100 mL with water. 84 mL of this kinase buffer solution is combined with 16 mL DMSO to prepare the 16% DMSO solution.
The 200 μM ATP solution is prepared by adding 102.6 μL 10 mM aqueous ATP, 25 μL ^33P-ATP, and 163.5 μL of 4 mM aqueous Epidermal Growth Factor Peptide 661-681 (Biomol, Catalog #P-121) in 5 mL kinase buffer solution.
The p38 kinase enzyme solution is prepared by dissolving 9.5 μL concentrated enzyme solution (250 ng p38 enzyme/μL kinase buffer solution) in 1536 μL kinase buffer solution.
An 80 μM solution of each test compound and control compound are prepared by dissolving 2 μL of a 10 mM stock solution of the respective compounds in dimethylsulfoxide in 248 μL of the 16% DMSO solution in a Costar 96-well microtiter plate. […]
10 μL of serially diluted compound is placed with a Beckman Multimek 96-well automated liquid handler to the assay plate. […] The plates are allowed to sit for 30 min and counted on a PE/Wallac Microbeta Trilux scintillation counter for ^33P-isotope.
The compound exemplified in Example 12 is initially tested at 10 concentrations (20 μM-1 nM using 1:3 serial dilutions). […] IC50 values are calculated (IDBS ActivityBase software) for each compound using non-linear regression.

For a further data set, the system named is TNFα. Description: Inhibition of TNFα in vitro (LPS/interferon-γ treated mouse peritoneal macrophages, Luminex). It counts as cell-based. Particulars: Peritoneal macrophage, LPS 50 ng/mL and interferon-γ 10 U/mL, 18 hours, read-out: IC50, suppression of TNFα in vitro. Here is the method:
1 mL thioglycolate broth (5.0 g yeast extract, 15.0 g casitone or trypticase, 5.0 g dextrose, 2.5 g sodium chloride, 0.75 g L-cystine, 0.5 g sodium thioglycolate, 1.0 mg resazurin, and 0.75 g agar in 1.0 L distilled water) are injected into the peritoneal cavity of Balb/C female mice. At day 4 or 5 post-injection the mice are sacrificed and then injected i.p. with 4 mL RPMI-1640 medium (BioWhittaker) and the peritoneal macrophages are withdrawn by syringe.
Mouse peritoneal macrophages are counted with a hemocytometer and adjusted to 5×10^5 cells/well in 96-well plates in RPMI-1640 medium with 10% fetal bovine serum. 200 μL/well is plated in 96-well plates and the cells allowed to settle and adhere to the bottom of the well for at least 3 hours. The test compound or standard p38 kinase inhibitor is pre-treated using a series of 8 concentrations for 1 hour at 37° C. […]
50 μL of cytokine detection antibody is added and incubated for 60 seconds at room temperature on a shaker protected from light at setting 6 and then for 30 minutes at setting 3.3 washes are performed with the Bio-Plex Wash Buffer. […] Standards and samples are read on a Luminex machine. These intensity readings are then converted to picogram/milliliter units based on a 12-point standard curve created in duplicate using a four-parameter logistic regression method (Bio-Plex Manager 2.0, Bio-Rad), and the IC50 calculated. […]

A further data set can be described thus: Oral exposure. Type of data set: in vivo. The note with it: rat, 1 mg/kg, male Fischer 344 rats, fasted, gavage, suspension 1 mg/mL at 1 mL/kg, plasma. Here is the method: Compounds are screened for oral exposure in male Fischer 344 rats. Animals are fasted overnight and administered test compounds prepared as suspensions in sodium carboxymethylcellulose (1% w/v) containing Tween 80 (0.25% v/v) and antifoam (0.1% w/v). Dose suspensions are prepared at 1 mg/mL and administered at 1 mL/kg by gavage. Blood samples are taken between 0.5 h and 7 h after dose administration and plasma are prepared by centrifugation. Plasma samples are analyzed using online solid phase extraction and LC/MS/MS.

Regarding `CS(=O)(=O)O.Cc1ccc(-n2nc(C3(C)CC3)cc2NC(=O)Nc2cnc(OC3CCN(C(=O)C4(C)CC4)CC3)c3ccccc23)cc1` [Example 12, 1-{1-[1-(1-Methyl-cyclopropanecarbonyl)-piperidin-4-yloxy]-isoquinolin-4-yl}-3-[5-(1-methyl-cyclopropyl)-2-p-tolyl-2H-pyrazol-3-yl]-urea mesylate], the results for the concentration for half-maximal inhibition (IC50) on p38 kinase enzyme and in the data set on TNFα were 34 nM and < 9 nM, respectively. The peak level in “Oral exposure” (Cmax) was 9390 ng/mL. Also, the AUC(0-t) in the data set “Oral exposure” (read-out: AUC (0-7 h)) came to 36800 ng·h/mL.
